Test results taken from patent US8461328B2, “Tricyclic heterocyclic compounds, compositions and methods of use thereof” (Genentech, Inc., priority 2010, dated 2013).

What was measured:
Format in all cases: biochemical
JAK2 = target: T1, JAK2 (Homo sapiens, UniProt O60674); test: JAK2 inhibition (Table 4); conditions: read-out: JAK2 Ki
T1 construct: made in house; host or cells: SF9 insect cells (baculovirus)

TYK2 = target: T2, TYK2 (Homo sapiens, UniProt P29597); test: TYK2 inhibition (Table 4)
T2 construct: made in house; host or cells: SF9 insect cells (baculovirus)
T2 sequence (P29597 873-1187): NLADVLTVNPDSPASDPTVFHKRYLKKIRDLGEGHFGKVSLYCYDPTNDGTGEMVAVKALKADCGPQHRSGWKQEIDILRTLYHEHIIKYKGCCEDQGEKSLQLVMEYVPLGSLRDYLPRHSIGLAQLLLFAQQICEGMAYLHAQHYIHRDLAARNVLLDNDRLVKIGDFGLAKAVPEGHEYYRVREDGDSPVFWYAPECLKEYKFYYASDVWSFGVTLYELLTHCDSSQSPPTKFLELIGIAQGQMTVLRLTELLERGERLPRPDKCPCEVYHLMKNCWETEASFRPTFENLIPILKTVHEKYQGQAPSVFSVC

JAK3 = target: T3, JAK3 (Homo sapiens, UniProt P52333); test: JAK3 inhibition (Table 4); conditions: read-out: JAK3 Ki
T3 construct: made in house; host or cells: SF9 insect cells (baculovirus)
T3 sequence (P52333 783-1124): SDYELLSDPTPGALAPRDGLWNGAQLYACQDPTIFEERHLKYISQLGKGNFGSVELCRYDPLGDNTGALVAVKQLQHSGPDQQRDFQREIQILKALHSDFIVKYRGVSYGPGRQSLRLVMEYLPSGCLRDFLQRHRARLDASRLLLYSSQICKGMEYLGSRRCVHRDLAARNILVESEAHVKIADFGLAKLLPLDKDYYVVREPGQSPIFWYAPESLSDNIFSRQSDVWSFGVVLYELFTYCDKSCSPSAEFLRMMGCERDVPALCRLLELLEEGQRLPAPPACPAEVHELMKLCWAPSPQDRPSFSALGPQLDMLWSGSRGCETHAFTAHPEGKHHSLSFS

JAK1 = target: T4, JAK1 (Homo sapiens, UniProt P23458); test: JAK1 inhibition (Table 4); conditions: read-out: JAK1 Ki
T4 construct: made in house; host or cells: SF9 insect cells (baculovirus)
T4 sequence (P23458 852-1154): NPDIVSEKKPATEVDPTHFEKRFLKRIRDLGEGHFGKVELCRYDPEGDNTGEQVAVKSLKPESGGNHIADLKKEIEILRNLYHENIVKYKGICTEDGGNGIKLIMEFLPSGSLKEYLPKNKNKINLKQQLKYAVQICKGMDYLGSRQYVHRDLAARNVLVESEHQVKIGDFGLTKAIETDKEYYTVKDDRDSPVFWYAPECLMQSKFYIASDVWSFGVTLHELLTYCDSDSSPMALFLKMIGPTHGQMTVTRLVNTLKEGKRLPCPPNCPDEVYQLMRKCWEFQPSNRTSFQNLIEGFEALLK

T1 sequence (O60674 812-1132): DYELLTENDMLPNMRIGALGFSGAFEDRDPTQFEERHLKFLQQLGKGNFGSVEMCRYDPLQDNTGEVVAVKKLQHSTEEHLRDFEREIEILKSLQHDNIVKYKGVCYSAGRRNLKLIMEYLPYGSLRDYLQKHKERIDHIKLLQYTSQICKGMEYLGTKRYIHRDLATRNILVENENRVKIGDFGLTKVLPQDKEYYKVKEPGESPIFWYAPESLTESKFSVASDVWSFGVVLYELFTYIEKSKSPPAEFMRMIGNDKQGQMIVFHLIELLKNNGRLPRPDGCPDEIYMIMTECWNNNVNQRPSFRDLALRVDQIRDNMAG

| Ki (JAK2) | Ki (TYK2) | Ki (JAK3) | Ki (JAK1) | SMILES |
| --- | --- | --- | --- | --- |
| 21.6 nM | 1360 nM | 19.5 nM | 5.3 nM | c1ccc(CN2CCC(n3c(C4CCC4)nc4cnc5[nH]ccc5c43)CC2)cc1 [Example 325, 1-(1-Benzyl-piperidin-4-yl)-2-cyclobutyl-1,6-dihydro-1,3,5,6-tetraaza-as-indacene] |
| 103 nM | 387 nM | 31 nM | 8.63 nM | C[C@@H](O)c1nc2cnc3[nH]ccc3c2n1C1CCN(Cc2ncccc2F)CC1 [Example 682, (R)-1-{1-[1-(3-Fluoro-pyridin-2-ylmethyl)-piperidin-4-yl]-1,6-dihydro-1,2,3,5,6-tetraaza-as-indacen-2-yl}-ethanol] |
| 4.41 nM | 26.6 nM | 93.3 nM | 3.44 nM | O=S(=O)(C1CC1)N1CCC(n2cnc3cnc4[nH]ccc4c32)CC1 [Example 69, 1-(1-Cyclopropanesulfonyl-piperidin-4-yl]-1,6-dihydro-1,3,5,6-tetraaza-as-indacene] |
| 90.4 nM | 157 nM | 453 nM | 42.2 nM | NC1CCCC(n2cnc3cnc4[nH]ccc4c32)C1 (single isomer, unassigned) [Example 367, 3-(6H-1,3,5,6-Tetraaza-as-indacen-1-yl)-cyclohexylamine] |
| 4.46 nM | 23.1 nM | 11.2 nM | 0.6 nM | Cc1nc2cnc3[nH]ccc3c2n1[C@H]1CC[C@H](NC(=O)OCC(F)F)CC1 [Example 607, Trans[4-(2-methyl-6H-1,2,3,5,6-tetraaza-as-indacen-1-yl)-cyclohexyl]-carbamic acid 2,2-difluoro-ethyl ester] |
| 36.6 nM | 444 nM | 150 nM | 10.7 nM | Cc1nc2cnc3[nH]ccc3c2n1C1CCC(NC(=O)N2CC(F)(F)C2)CC1 (stereo not shown) [Example 748, 3,3-difluoro-azetidine-1-carboxylic acid [4-(2-methyl-6H-1,3,5,6-tetraaza-as-indacen-1-yl)-cyclohexyl]-amide] |
| 57.5 nM | 294 nM | 52.6 nM | 10.3 nM | N#CCCN1CCC(n2c(CCC3CCCO3)nc3cnc4[nH]ccc4c32)CC1 (racemic) [Example 517, 3-(4-{2-[2-(Tetrahydro-furan-2-yl)-ethyl]-6H-1,3,5,6-tetraaza-as-indacen-1-yl}-piperidin-1-yl)-propionitrile] |
| 41.5 nM | 169 nM | 76.3 nM | 13 nM | N#CCCN1CCC(n2c(CNS(=O)(=O)C3CC3)nc3cnc4[nH]ccc4c32)CC1 [Example 497, Cyclopropanesulfonic acid {1-[1-(2-cyano-ethyl)-piperidin-4-yl]-1,6-dihydro-1,3,5,6-tetraaza-as-indacen-2-ylmethyl}-amide] |
| 311 nM | 2560 nM | 4060 nM | 217 nM | CC(C)(C)OC(=O)N1CCC[C@@H]1C(=O)N1CCC(n2cnc3cnc4[nH]ccc4c32)CC1 [Example 242, (R)-2-[4-(6H-1,3,5,6-Tetraaza-as-indacen-1-yl)-piperidine-1-carbonyl]-pyrrolidine-1-carboxylic acid tert-butyl ester] |
| 604 nM | 3430 nM | 2630 nM | 92.5 nM | CN1CCC[C@H]1C(=O)N1CCC(n2nnc3cnc4[nH]ccc4c32)CC1 [Example 284, ((S)-1-Methyl-pyrrolidin-2-yl)-[4-(6H-1,2,3,5,6-pentaaza-as-indacen-1-yl)-piperidin-1-yl]-methanone] |
| 136 nM | 358 nM | 245 nM | 32.2 nM | CC(C)NC(=O)[C@H]1CC[C@H](n2cnc3cnc4[nH]ccc4c32)CC1 [Example 247, 4-(6H-1,3,5,6-Tetraaza-as-indacen-1-yl)-cyclohexanecarboxylic acid isopropylamide] |
| 12.8 nM | 98.2 nM | 283 nM | 10.8 nM | O=S(=O)(N1CCC(n2cnc3cnc4[nH]ccc4c32)CC1)C(F)(F)F [Example 89, 1-(1-Trifluoromethanesulfonyl-piperidin-4-yl)-1,6-dihydro-1,3,5,6-tetraaza-as-indacene] |
| 3.67 nM | 78.6 nM | 59.6 nM | 1.38 nM | N#Cc1cc(CN2CCC(n3cnc4cnc5[nH]ccc5c43)CC2)ccn1 [Example 313, 4-[4-(6H-1,3,5,6-Tetraaza-as-indacen-1-yl)-piperidin-1-ylmethyl]-pyridine-2-carbonitrile] |
| 116 nM | 75.5 nM | 44 nM | 59.5 nM | C[C@@H](O)c1nc2cnc3[nH]ccc3c2n1C1CCC(NCC(F)(F)F)CC1 (stereo partly drawn) [Example 1009, (R)-1-{1-[4-(2,2,2-Trifluoro-ethylamino)-cyclohexyl]-1,6-dihydro-1,3,5,6-tetraaza-as-indacen-2-yl}-ethanol] |
| 10.2 nM | 41.4 nM | 25.7 nM | 6.38 nM | c1cc2c(ncc3ncn(C4CCc5[nH]ncc5C4)c32)[nH]1 (stereo not shown) [Example 198, 1-(4,5,6,7-Tetrahydro-1H-indazol-5-yl)-1,6-dihydro-1,2,3,5,6-tetraaza-as-indacene] |
| 269 nM | 3450 nM | 2040 nM | 216 nM | CC1(C(=O)N2CCC(n3cnc4cnc5[nH]ccc5c43)CC2)CCCN1 (racemic) [Example 251] |
| 57.5 nM | 21.5 nM | 137 nM | 1.96 nM | C[C@@H](O)c1nc2cnc3[nH]ccc3c2n1[C@H]1CC[C@H](NCCC#N)CC1 [Example 615, Trans 3-{4-[2-((R)-1-hydroxy-ethyl)-6H-1,2,3,5,6-tetraaza-as-indacen-1-yl]-cyclohexylamino}-propionitrile] |
| 121 nM | 352 nM | 15.1 nM | 36.1 nM | N#CCCN1CCC(n2c(CC(=O)N3CCCC3)nc3cnc4[nH]ccc4c32)CC1 [Example 270, 3-{4-[2-(2-Oxo-2-pyrrolidin-1-yl-ethyl)-6H-1,3,5,6-tetraaza-as-indacen-1-yl]-piperidin-1-yl}-propionitrile] |
| 397 nM | 1950 nM | 1050 nM | 90.8 nM | CC(C)(C)OC(=O)N1CCC[C@H](CN[C@H]2CC[C@H](n3cnc4cnc5[nH]ccc5c43)CC2)C1 [Example 565, trans (R)-3-{[4-(6H-1,3,5,6-Tetraaza-as-indacen-1-yl)-cyclohexylamino]-methyl}-piperidine-1-carboxylic acid tert-butyl ester] |
| 82.6 nM | 147 nM | 434 nM | 22.2 nM | CN(C)CCOC(=O)N[C@H]1CC[C@H](n2cnc3cnc4[nH]ccc4c32)CC1 [Example 358, [4-(6H-1,3,5,6-Tetraaza-as-indacen-1-yl)-cyclohexyl]-carbamic acid 2-dimethylamino-ethyl ester] |
| 89.8 nM | 282 nM | 410 nM | 55.3 nM | Cn1cc2c(n1)CCC(n1cnc3cnc4[nH]ccc4c31)C2 (racemic) [Example 956, 1-(2-Methyl-4,5,6,7-tetrahydro-2H-indazol-5-yl)-1,6-dihydro-1,3,5,6-tetraaza-as-indacene] |
| 46 nM | 244 nM | 249 nM | 16.4 nM | Cc1nc2cnc3[nH]ccc3c2n1[C@H]1CC[C@H](NC(=O)N(C)C)CC1 [Example 604, Trans 1,1-dimethyl-3-[4-(2-methyl-6H-1,2,3,5,6-tetraaza-as-indacen-1-yl)-cyclohexyl]-urea] |
| 208 nM | 267 nM | 643 nM | 39.7 nM | Cc1nc2cnc3[nH]ccc3c2n1C1CCCCNC1 (racemic) [Example 987, 1-Azepan-3-yl-2-methyl-1,6-dihydro-1,3,5,6-tetraaza-as-indacene] |
| 47 nM | 241 nM | 179 nM | 20.8 nM | CC(=O)N(C)CCc1nc2cnc3[nH]ccc3c2n1C1CCN(C(C)CC#N)CC1 (racemic) [Example 398, N-(2-{1-[1-(2-Cyano-1-methyl-ethyl)-piperidin-4-yl]-1,6-dihydro-1,3,5,6-tetraaza-as-indacen-2-yl}-ethyl)-N-methyl-acetamide] |
| 97.8 nM | 399 nM | 177 nM | 83.4 nM | Cc1nc2cnc3[nH]ccc3c2n1C1CC1 [Example 425, 1-Cyclopropyl-2-methyl-1,6-dihydro-1,3,5,6-tetraaza-as-indacene] |
| 10.9 nM | 56.7 nM | 97.8 nM | 4.26 nM | c1cnc(N2CCC(n3cnc4cnc5[nH]ccc5c43)CC2)cn1 [Example 72, 1-(1-Pyrazin-2-yl-piperidin-4-yl]-1,6-dihydro-1,3,5,6-tetraaza-as-indacene] |
| 24 nM | 38.5 nM | 52.9 nM | 10.3 nM | OC1CCCC(n2cnc3cnc4[nH]ccc4c32)C1 (single isomer, unassigned) [Example 559, 3-(6H-1,3,5,6-Tetraaza-as-indacen-1-yl)-cyclohexanol] |
| 10.8 nM | 35.6 nM | 43.6 nM | 5.5 nM | CC(=O)N[C@H]1CC[C@H](n2cnc3cnc4[nH]ccc4c32)CC1 [Example 106, Trans N-[4-(6H-1,3,5,6-tetraaza-as-indacen-1-yl)-cyclohexyl]acetamide] |
